Results taken from US20030224978A1, “Compounds and methods for modulating apoptosis” (McGill University, priority 1996, published 2003).
“Also recorded” adds a separate entry of the source. Positions of bridges follow the written chain, without caps; N, C: chain ends. Residues, ends and D or L forms follow the SMILES beside them.

How the values were obtained:
[1] = test system: control 3T3 cells; assay: Neurite outgrowth of rat cerebellar neurons on control 3T3 cells (Example 14); format: cell-based; settings: increasing concentrations
Method: Cell culture and neurite outgrowth assays. Co-cultures of cerebellar neurons on monolayers of control 3T3 cells and monolayers of transfected 3T3 cells that express physiological levels of chick N-cadherin or human L1 were established as previously described (Williams et al., Neuron 13:583-594, 1994). In brief, 80,000 3T3 cells (control and transfected) were plated into individual chambers of an eight-chamber tissue culture slide coated with polylysine and fibronectin and cultured in DMEM/10% FCS. After 24 hours, when confluent monolayers had formed, the medium was removed and 3000 cerebellar neurons isolated from post-natal day 2-3 rats were plated into each well in SATO media (Doherty et al., Nature 343:464-466, 1990) supplemented with 2% FCS. All of the test peptides were added immediately before the neurons as a 2×stock prepared in SATO/2% FCS. […] The mean length of the longest neurite per cell was measured for 150-200 neurons sampled in replicate cultures as previously described (Williams et al., Neuron 13:583-594, 1994). […] Dose-response curves were evaluated and the EC50 values determined.
Effects of cyclic HAV peptides on N-cadherin function. […] The cells were then fixed and the length of the longest neurite on 150-200 neurons was determined by standard assay, as described above. […]

[2] = test system: human skin; assay: Human skin permeability, penetration of fluorescent markers, Franz Cell apparatus; settings: compared to N-Ac-CHGVC-NH2
Method: A third cell adhesion assay involves evaluating the effect of a cyclic peptide on permeability of adherent epithelial and/or endothelial cell layers. For example, the effect of permeability on human skin may be evaluated. Such skin may be derived from a natural source or may be synthetic. Human abdominal skin for use in such assays may generally be obtained from humans at autopsy within 24 hours of death. Briefly, a cyclic peptide and a test marker (e.g., the fluorescent markers Oregon Green™ and Rhodamine Green™ Dextran) may be dissolved in a sterile buffer, and the ability of the marker to penetrate through the skin and into a receptor fluid may be measured using a Franz Cell apparatus (Franz, Curr. Prob. Dermatol. 7:58-68, 1978; Franz, J. Invest. Dermatol. 64:190-195, 1975). In general, a modulating agent that enhances the permeability of human skin results in a statistically significant increase in the amount of marker in the receptor compartment after 6-48 hours in the presence of 500 μg/mL modulating agent. This assay evaluates the effect of a modulating agent on E-cadherin mediated cell adhesion.
Abdominal skin from humans at autopsy within 24 hours of death was used in these assays. The effect of N-Ac-CHAVC-NH2 (SEQ ID NO:10) and N-Ac-CHGVC-NH2 (SEQ ID NO:20), used at a concentration of 500 μg/ml or 2.5 mg/ml, on the penetration of two fluorescent markers, Oregon Green 488 (charge −1, MW 386 daltons) and Rhodamine Green 3000 Dextran (no charge, MW 3000 daltons) through human skin was then evaluated utilizing a Franz Cell apparatus (Franz, Curr. Prob. Dermatol. 7:58-68, 1978; Franz, J. Invest. Dermatol. 64:190-195, 1975). The peptides and markers were dissolved in sterile phosphate buffer, pH 7.2, and phosphate buffer was used as the receptor fluid. 150 μl of solution containing 0.2 mg Oregon Green and 1.0 mg Rhodamine Green was used to evaluate 500 μg/ml peptide; 200 μl of solution containing 0.05 mg Oregon Green and 1.250 mg Rhodamine Green was used to evaluate 2.5 mg/ml peptide. The solution was placed on top of the epidermal side of the skin, and the penetration of the markers through the skin was assessed using a fluorescent spectrophotometric method (in a Perkin Elmer 650-105 Fluorescence Spectrophotometer, and comparing the reading to a standard curve) at 6, 12, 24, 36, and 48 hours after the start of the experiment. The fluorescent units were converted to a concentration unit of microgram/5 ml (volume of the receiver compartment) using a standard curve and regression analysis equations. The curve was linear for the concentrations tested for both markers (r^2=1 for OrG and 0.997 for RhG). For each peptide and marker combination, the experiment was performed in triplicate.

[3] = test system: A1N4 human breast epithelial cells; assay: Disruption of breast epithelial cell adhesion, E-cadherin immunostaining; format: cell-based; settings: 500 μg/mL, 48 hours
Method: A1N4 human breast epithelial cells (kindly provided by Martha Stampfer, Lawrence Berkeley Laboratory, Berkeley, Calif.) were plated on glass coverslips and cultured in F12/DME containing 0.5% FCS and 10 ng/mL EGF for 24 hours. Fresh medium containing the cyclic peptides (final concentration 500 μg/mL media) N-Ac-CHAVC-NH2 (SEQ ID NO:10) or N-Ac-CHGVC-NH2 (SEQ ID NO:20) was then added. Following 24 hours of culture in the presence of the peptides, the medium was removed and fresh medium containing the peptides was added. The cells were fixed 24 hours later with cold methanol and stored in phosphate buffered saline (PBS).
Coverslips were blocked for 1 hour in 3% ovalbumin/PBS and incubated for a further 1 hour in the presence of 1 μg/mL mouse anti-E-cadherin antibody (Zymed, Gaithersburg, Md.). Primary and secondary antibodies were diluted in PBS containing 6% normal goat serum. Following incubation in the primary antibody, coverslips were washed 3 times for 5 minutes each in PBS and incubated for 1 hour with goat anti-mouse conjugated to fluorescein (Kiekegard and Perry, South San Francisco, Calif.) diluted 1:100. Following a further wash in PBS (3×5 minutes) coverslips were mounted in Vectashield (Vector Labs, Burlingame, Calif.) and viewed with a Zeiss infinity corrected microscope.

[4] = test system: OVCAR-3; assay: Disruption of human ovarian cancer cell (OVCAR-3) adhesion; format: cell-based; settings: for OVCAR3 cell morphology: 24 hours
Method: The human ovarian cancer cell line OVCAR-3, which expresses E-cadherin, was used in these experiments. Cells were cultured in RPMI supplemented with insulin and containing 20% FCS. Cells were grown in T-250 culture flasks and maintained by periodic subculturing. Cells were harvested from flasks and seeded in individual wells of 96-well culture dishes (surface area of each well was 0.32 cm^2) at a density of 50,000 cells per well in 0.1 ml media containing the cyclic peptides (at concentrations of 1, 0.1, or 0.01 mg/ml). Media control wells were also established. Cultures were evaluated periodically by microscopic examination under both bright field and phase contrast conditions, and were maintained for 48 hours.

| SMILES | effect on neurite extension over control 3T3 cells [1] | effect on penetration of Oregon Green through the skin, in words ([2]; 500 μg/ml) | effect on penetration of Rhodamine Green through the skin, in words ([2]; 500 μg/ml) | effect on penetration of Oregon Green through the skin, in words ([2]; 2.5 mg/ml) | effect on penetration of Rhodamine Green through the skin, in words ([2]; 2.5 mg/ml) | E-cadherin staining and monolayer of A1N4 cells [3] | OVCAR3 cell morphology ([4]; 100 μg/ml) | OVCAR3 cell morphology ([4]; 1 mg/ml) | effect on OVCAR-3 adhesion ([4]; 1, 0.1, or 0.01 mg/ml, up to 48 hours) |
| --- | --- | --- | --- | --- | --- | --- | --- | --- | --- |
| CC(=O)N[C@H]1CSSC[C@@H](C(N)=O)NC(=O)[C@H](C(C)C)NC(=O)[C@H](C)NC(=O)[C@H](Cc2c[nH]cn2)NC1=O [N-Ac-CHAVC-NH2, N-Ac-Cys-His-Ala-Val-Cys-NH2] | no significant effect on neurite extension over control 3T3 cells; also recorded: had no effect on the basal growth over 3T3 cells | slightly increased the penetration of Oregon Green | significantly increased | increased the penetration of Oregon Green | significantly increased | reduced E-cadherin staining with a stitched appearance; also recorded: distribution of E-cadherin is non-contiguous | – | – | – |
| CC(=O)N[C@H]1CSSC[C@@H](C(N)=O)NC(=O)[C@H](CO)NC(=O)[C@H](C(C)C)NC(=O)[C@H](C)NC(=O)[C@H](Cc2c[nH]cn2)NC1=O [N-Ac-CHAVSC-NH2, N-Ac-Cys-His-Ala-Val-Ser-Cys-NH2] (Ac-CHAVSC-NH2; disulfide 1-6) | – | – | – | – | – | – | retract form one another | round up | disrupted OVCAR-3 adhesion |
